The values that follow are results of earlier work, collected in paper PMC6920808, “Preclinical Evaluation of UDCA-Containing Oral Formulation in Mice for the Treatment of Wet Age-Related Macular Degeneration” (Pharmaceutics, 2019).

Molecules are shown by their SMILES.

On the set-up of data set [1]: method as in PMID 6479887, PMID 30319399. Particulars: ref [17],[18].
Another data set deals with laser-treated rat model. Also noted: method as in PMID 20565307. Conditions: intraperitoneally injected, ref [4].
The next data set concerns retina. Details: method as in earlier work. Particulars: intravitreally injected, dose higher than 5 μg of TUDCA (5 mg/mL), Balb/C mice, ref [33].

Take `C[C@H](CCC(=O)O)[C@H]1CC[C@H]2[C@@H]3[C@@H](O)C[C@@H]4C[C@H](O)CC[C@]4(C)[C@H]3CC[C@]12C` [UDCA, 3α,7β-dihydroxy-5β-cholanoic acid]: the pKa entry in data set [1] was “around 5.0”. Further, in the data set with laser-treated rat model, the “CNV size and vascularity” value is recorded as “reduction”; the “early VEGF elevation in the retina” value was “effectively suppress”.
In the case of `C[C@H](CCC(=O)NCCS(=O)(=O)O)[C@H]1CC[C@H]2[C@@H]3[C@@H](O)C[C@@H]4C[C@H](O)CC[C@]4(C)[C@H]3CC[C@]12C` [TUDCA, tauroursodeoxycholic acid], in the data set on laser-treated rat model, the “CNV size and vascularity” value is on record as “reduction”; the “early VEGF elevation in the retina” value is on record as “effectively suppress”. Further, the “A- and B-wave amplitudes in the ERG and outer nuclear layer thickness” value in the data set on retina was “reduced”.
